A short description of data set [1]: Stability assay in rabbit aqueous humor. It is filed as in vitro ADME. The conditions noted are these: for half-life at 1 μM: rabbit, read-out: t½ AH. On the procedure:
Compounds are incubated at a concentration of 1 μM in rabbit aqueous humor (AH). Samples are taken at fixed time points and the remnant of compound is determined by LC-MS/MS after protein precipitation. Half life is expressed in minutes.

Data set [2] in a line: Stability assay in human plasma. It is filed as in vitro ADME. The conditions noted are these: 1 μM compound, LC-MS/MS, read-out: t½ human plasma. The procedure:
(§1) Compounds are incubated at a concentration of 1 μM in rat (mice or rabbit) or human plasma. Samples are taken at fixed time points and the remnant of compound is determined by LC-MS/MS after protein precipitation. Half life is expressed in minutes.

A short description of data set [3]: Stability in plasma, species not stated. It is filed as in vitro ADME. The conditions noted are these: for half-life at 1 μM: read-out: t½ Plasma; for half life in plasma (in words): point C.2.1. On the procedure:
as §1

The target of the next data set is ROCK2 (Homo sapiens, UniProt O75116). As to the kind of experiment: Kinase inhibition (ROCKI & ROCKII), radiometric 33P-ATP biochemical assay. Particulars: for inhibitory activity against ROCK (in words): summary of point C1.1. The procedure: On-target activity against ROCK was measured in a biochemical assay, using the following reagents: Base Reaction buffer; 20 mM Hepes (pH 7.5), 10 mM MgCl2, 1 mM EGTA, 0.02% Brij35, 0.02 mg/ml BSA, 0.1 mM Na3VO4, 2 mM DTT, 1% DMSO. Required cofactors are added individually to each kinase reaction. The reaction procedure first involved the preparation of a peptide substrate in a freshly prepared reaction buffer. Required cofactors were then added to the substrate solution. ROCK (1 nM final concentration) was then delivered to the substrate solution. After gentle mix, DMSO solutions of the test compounds were added to the enzyme. Substrate mix ^33P-ATP (specific activity 0.01 μCi/μl final) was then delivered into the reaction mixture to initiate the reaction. The kinase reaction was incubated for 120 min. at room temperature. Reactions were then spotted onto P81 ion exchange paper (Whatman #3698-915). Filters were washed extensively in 0.1% Phosphoric acid. A radiometric count was then performed and IC50 values were subsequently determined.
Chain of ROCK2 (O75116 whole entry, species assumed): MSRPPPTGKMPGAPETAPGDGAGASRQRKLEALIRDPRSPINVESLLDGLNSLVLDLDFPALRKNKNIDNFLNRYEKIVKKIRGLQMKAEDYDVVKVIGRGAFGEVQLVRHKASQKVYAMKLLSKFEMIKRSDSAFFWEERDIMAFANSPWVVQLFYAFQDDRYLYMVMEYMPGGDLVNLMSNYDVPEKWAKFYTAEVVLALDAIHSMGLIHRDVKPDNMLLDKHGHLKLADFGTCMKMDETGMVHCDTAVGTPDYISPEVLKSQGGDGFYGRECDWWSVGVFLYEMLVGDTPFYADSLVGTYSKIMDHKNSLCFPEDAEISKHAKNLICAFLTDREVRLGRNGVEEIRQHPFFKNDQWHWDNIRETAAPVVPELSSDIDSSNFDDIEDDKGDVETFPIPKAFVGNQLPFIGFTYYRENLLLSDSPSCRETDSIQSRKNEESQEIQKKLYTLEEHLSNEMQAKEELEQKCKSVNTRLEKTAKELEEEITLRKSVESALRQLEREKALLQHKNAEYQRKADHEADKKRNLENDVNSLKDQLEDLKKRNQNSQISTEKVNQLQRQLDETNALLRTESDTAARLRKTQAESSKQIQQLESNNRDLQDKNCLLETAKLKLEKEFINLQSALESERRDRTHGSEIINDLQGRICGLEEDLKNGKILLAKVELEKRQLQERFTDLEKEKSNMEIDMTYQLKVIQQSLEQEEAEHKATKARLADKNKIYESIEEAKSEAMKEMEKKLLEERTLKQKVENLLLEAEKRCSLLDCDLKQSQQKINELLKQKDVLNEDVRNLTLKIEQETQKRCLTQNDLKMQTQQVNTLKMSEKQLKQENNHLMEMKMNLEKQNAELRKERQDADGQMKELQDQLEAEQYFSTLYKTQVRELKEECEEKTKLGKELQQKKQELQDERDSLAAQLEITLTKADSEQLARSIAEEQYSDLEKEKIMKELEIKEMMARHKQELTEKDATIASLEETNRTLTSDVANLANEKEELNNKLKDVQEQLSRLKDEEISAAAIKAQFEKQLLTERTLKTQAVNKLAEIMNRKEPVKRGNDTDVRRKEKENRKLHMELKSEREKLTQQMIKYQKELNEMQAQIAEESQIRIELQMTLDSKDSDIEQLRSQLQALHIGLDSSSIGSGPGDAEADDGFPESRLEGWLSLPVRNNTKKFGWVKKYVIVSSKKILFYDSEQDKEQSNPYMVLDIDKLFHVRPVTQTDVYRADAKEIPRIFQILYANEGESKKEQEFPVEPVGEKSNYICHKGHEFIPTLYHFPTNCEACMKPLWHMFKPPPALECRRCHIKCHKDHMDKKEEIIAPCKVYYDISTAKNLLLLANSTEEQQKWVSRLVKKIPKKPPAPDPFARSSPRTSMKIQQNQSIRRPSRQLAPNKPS
The IC50 values obtained (in accordance with the protocol set forth above) are represented as follows: “+++” means IC50 below 0.1 μM, “++” means IC50 between 0.1 μM and 1 μM; “+” means IC50 between 1 and 10 μM and “ND” means “not determined yet”.

Data set [4] in a line: Stability towards drug metabolizing enzymes in lung S9. It is filed as in vitro ADME, human. The conditions noted are these: for half-life at 1 μM: human. The procedure: A 1 μM solution of the ROCK inhibitors is incubated with a reaction mixture containing lung S9 (from smokers) as well as the cofactors NADPH, UDPGA, PAPS and GSH. Samples are collected at 0, 15, 30 and 60 minutes post incubation. Negative control samples incubated with ROCK inhibitors and S9 fraction in the absence of cofactors are run in parallel. By using LC-MS/MS analysis, the percent of ROCK compounds remaining at each time point, the metabolic half-life of the ROCK compounds (expressed in minutes) and the metabolic half-life of the control compounds are determined.

The test system of data set [5] is MLC-T18/S19 phosphorylation. Put plainly: Myosin light chain phosphorylation assay (ELISA) in A7r5 cells. Particulars: for IC50 / EC50: Rattus norvegicus; for IC50: A7R5, comparison table, MLC phosphorylation, read-out: IC50 MLC-PP; for EC50: MLC-T18/S19 phosphorylation, A7r5 cells, serum-free medium; for functional activity in the MLC phosphorylation assay (in words): FIG. 1. It is filed as cell-based, Rat. On the procedure: Rat smooth muscle cell line A7r5 is used. The endogenous expression of ROCK esults in a constitutive phosphorylation of the regulatory myosin light chain at T18/S19. A7r5 cells were plated in DMEM supplemented with 10% FCS in multiwall cell culture plates. After serum starvation overnight, cells were incubated with compounds in serum-free medium.
Quantification of MLC-T18/S19 phosphorylation is assesses in 96 well-plates via ELISA using a phspho-MLC-T18/S19 specific antibody and a secondary detection antibody. Raw data were converted into percent substrate phosphorylation relative to high controls, which were set to 100%.
EC50 values were determined using GraphPad Prism 5.01 software using a nonlinear regression curve fit with variable hill slope.
The EC50 values obtained (in accordance with the protocols set forth above) are represented as follows: “+++” means EC50 below 0.3 μM, “++” means EC50 between 0.3 μM and 1 μM; “+” means EC50 between 1 and 10 μM and “−” means EC50>10 μM.

Data set [6] can be described thus: Stability assay in mice plasma. Particulars: mouse, 1 μM compound, LC-MS/MS, read-out: t½ mice plasma. It is filed as in vitro ADME. The procedure:
as §1

Data set [7] deals with normotensive New Zeland White rabbits. Put plainly: Intraocular pressure (IOP) lowering in normotensive rabbits. It is filed as in vivo, rabbit. The procedure:
A detailed example of the IOP lowering effects of the compounds of the invention is here provided for compound 14. Compound 14 was here formulated as a 0.3% solution of pH=6.91 in Water/PEG 400 1:1.
IOP of to normotensive New Zeland White rabbits (n=3) was measured using a Tonolab tonometer, at 9h00, prior to compound administration.
At 9h30, one drop (50 μl) of the formulated solution was administered to rabbits, in the right eye (OD); while one drop (50 μl) of the vehicle solution was administered to the left eye (OS). IOP was then recorded in 1 h intervals until 17 h.

Where [8] appears, read: aqueous humor, 1 μM in rabbit aqueous humor.
[9] abbreviates: aqueous humor, comparison table, aqueous humor.
Setting [10] is: comparison table, plasma species not given.
Where [11] appears, read: ROCK 1 nM, 120 min at room temperature.
Setting [12] is: 1 μM, lung S9 from smokers, cofactors NADPH, UDPGA, PAPS, GSH.
The mark [13] stands for this setting: lung S9 (from smokers), text summary of point C.2.2, read-out: half-life in lung tissue.
Setting [14] is: lung S9 (from smokers), comparison table, read-out: t½ lung S9.

This is an account of results in patent publication US9073905B2, “Rock inhibitors” (Amakem NV, priority 2011, dated 2015).

“Also recorded” adds a separate entry of the source.

Broadly, the IC50 is the midpoint of a concentration-inhibition curve. One may read the EC50 as the concentration at which the effect is half-maximal. High values mean weaker potency, low ones greater potency. In the case of `COC(=O)c1cccc(NC(=O)c2cccc(CN3CCC(Nc4cccc5cnccc45)C3)c2)c1` (stereo not drawn) [Compound 32], the half-life at 1 μM in data set [1] (setting [8]) was more than 120 min; in data set [1] (setting [9]) it was 98 min; in data set [2] it was 25 min; in data set [3] (setting [10]), 22 min; in data set [4] (1 μM, lung S9 from smokers, cofactors NADPH, UDPGA, PAPS, GSH, read-out: t½ human lung S9), more than 240 min. Moreover, the values for the IC50 (against ROCK2 (setting [11]); on ROCK2 (comparison table); in data set [5]) were less than 100 nM, 25 nM and 160 nM, respectively. Moreover, in data set [4] (comparison table), the “t½ lung S9” value is on record as more than 240 min. For the same compound, the EC50 in data set [5] was less than 300 nM.
For `O=C(NCCSC1CCOC1=O)c1cccc(CN2CCCC(Nc3ccc4[nH]ncc4c3)C2)c1` (stereo not drawn) [Compound 28], the half-life at 1 μM was less than 5 min in data set [2], 2.2 min in data set [6] and more than 240 min in data set [4] (setting [13]). The “half life in plasma (in words)” value in data set [3] was “short half life”. The IC50 on ROCK2 (setting [11]) is less than 100 nM. Further, the “inhibitory activity against ROCK (in words)” value (from here on “inhibitory activity”) against ROCK2 is “strong inhibitory activity”. In data set [4] (setting [12]), the “t½ human lung S9” value was more than 240 min. In data set [5], the “functional activity in the MLC phosphorylation assay (in words)” value (“functional activity” below) is recorded as “display functional activity”. For the same compound, the EC50 in data set [5] lay in the range of 300 to 1000 nM.
For `O=C(OCC1CCCO1)c1cccc(CN2CCCC(Nc3ccc4[nH]ncc4c3)C2)c1` (stereo not drawn) [Compound 14], the half-life at 1 μM in data set [1] (setting [8]) is more than 120 min; in data set [1] (setting [9]) it was more than 120 min; in data set [2], less than 5 min; in data set [3] (setting [10]) it was less than 5 min; in data set [4] (setting [14]) it was 9 min. Moreover, the “half-life in aqueous humor compared with plasma (in words)” value in data set [1] (text summary of point C.2.3) is listed as “significantly longer half-life in aqueous humor than in plasma”. The “half life in plasma (in words)” value in data set [3] is reported as “short half life”. The values for the half-inhibitory concentration (IC50) (on ROCK2 (setting [11]); at ROCK2 (comparison table); in data set [5]) were less than 100 nM, 3.4 nM and 240 nM, respectively. In addition, the “inhibitory activity” value against ROCK2 is recorded as “strong inhibitory activity”. In addition, the “time after administration until which the IOP decrease is statistically significant (P≦0.05)” value in data set [7] (0.3% solution, one drop at 9h30, until the 14 h time point) amounted to 4.30 h. Also, the “IOP decrease following administration (in words)” value in data set [7] (0.3% solution, one drop, visible until 17 h) is “pronounced IOP decrease”. In addition, the “Average IOP OD (mmHg)” value in data set [7] (9 h, right eye (OD), prior to compound administration (baseline), n=3) is 9.89 mmHg; in data set [7] (10 h, one drop (50 μl) 0.3% solution in Water/PEG 400 1:1 at 9h30, right eye (OD)), 7.67 mmHg; in data set [7] (11 h, one drop (50 μl) 0.3% solution at 9h30, right eye (OD)), 6.44 mmHg; in data set [7] (12 h, one drop (50 μl) 0.3% solution at 9h30, right eye (OD)), 6.22 mmHg; in data set [7] (13 h, one drop (50 μl) 0.3% solution at 9h30, right eye (OD)) it was 7.00 mmHg; in data set [7] (14 h, one drop (50 μl) 0.3% solution at 9h30, right eye (OD)) it was 6.44 mmHg. Also, the “Average IOP OD (mmHg)” value came to 7.67 mmHg in data set [7] (15 h, one drop (50 μl) 0.3% solution at 9h30, right eye (OD)); 7.89 mmHg in data set [7] (16 h, one drop (50 μl) 0.3% solution at 9h30, right eye (OD)); 8.11 mmHg in data set [7] (17 h, one drop (50 μl) 0.3% solution at 9h30, right eye (OD)). Further, the “functional activity” value in data set [5] was “functionally active compound; also recorded: display functional activity”. For the same compound, in data set [5], the EC50 was less than 300 nM.
`CCOC(=O)COc1cccc(CN2CCCC(Nc3ccc4[nH]ncc4c3)C2)c1` (racemic) [Compound 1.060, reference compound]: the “t½ AH” value in data set [1] (comparison table, aqueous humor) is less than 5 min. For the same compound, the half-life at 1 μM in data set [1] (setting [9]), in data set [3] (setting [10]) and in data set [4] (setting [14]) was less than 5 min each time. In addition, the “t½ Plasma” value in data set [3] (setting [10]) is less than 5 min. On ROCK2 (comparison table), this compound had an IC50 of 7 nM. In addition, the “t½ lung S9” value in data set [4] (comparison table) is reported as less than 5 min.
On to `CS(=O)(=O)Nc1cccc(CN2CCCC(Nc3ccc4[nH]ncc4c3)C2)c1` (stereo not drawn) [Compound 1.091, reference compound], for which the half-life at 1 μM was more than 120 min in data set [1] (setting [9]), more than 120 min in data set [3] (setting [10]) and more than 240 min in data set [4] (setting [14]). In addition, the “degradation in the tested media, including plasma (in words)” value in data set [3] (plasma, aqueous humor, lung S9) was “not degraded at a significant rate”. Further, the IC50 stood at 2.4 nM against ROCK2 (comparison table) and 110 nM in data set [5].
With `O=C(NCCSC1CCOC1=O)c1cccc(CN2CCCC(Nc3cccc4cnccc34)C2)c1` (stereo not drawn) [Compound 26], the half-life at 1 μM in data set [2] was 5 min; in data set [6] it was 2.5 min; in data set [3] (setting [10]), less than 5 min; in data set [4] (setting [13]), more than 240 min. In addition, in data set [3], the “half life in plasma (in words)” value was “short half life”. The figures for the IC50 (against ROCK2 (setting [11]); at ROCK2 (comparison table); in data set [5]) were less than 100 nM, 1.9 nM and 400 nM, respectively. Besides, the “inhibitory activity” value against ROCK2 was “strong inhibitory activity”. Further, in data set [4] (setting [12]), the “t½ human lung S9” value is more than 240 min. Moreover, the “t½ lung S9” value in data set [4] (comparison table) is more than 240 min. Also, in data set [5], the “functional activity” value is “display functional activity”. For the same compound, the concentration for a half-maximal effect (EC50) in data set [5] lay in the range of 300 to 1000 nM.
